# Assay results from patent publication US9944607B2, “Thiohydantoin derivatives and uses thereof” (Whitehead Institute for Biomedical Research, priority 2012, dated 2018).
# Read-outs that look alike come from different tables or passages of the source.
# Columns and labels:
# [1] = PBS stability; format: physicochemical; conditions: PBS pH 7.4, 23° C.
# Description: Stability was determined in the presence of PBS pH 7.4 with 0.1% DMSO. […] One plate was removed at each time point (0, 2, 4, 8, 24, and 48 hours). […] Additionally, to the remaining material at each time point, acetonitrile was added to force dissolution of compound (to test for recovery of compound). An aliquot of this was also analyzed by UPLC-MS.
# [2] = test system: Candida albicans CaCi-2; assay: Broth microdilution growth inhibition of C. albicans CaCi-2 in presence or absence of fluconazole; format: cell-based; conditions: CACI2, RPMI media
# Description: Growth inhibition of I-B-4 (ML316) against Candida albicans CaCi-2 in the presence or absence of fluconazole was assessed using the broth microdilution method with RPMI media.
# [3] = test system: C. glabrata (ATCC 2001); assay: Secondary C. glabrata inhibition in glycerol media (OD600); format: cell-based, Candida glabrata; conditions: for IC50: Nakaseomyces glabratus
# Text: Cell Lines. • Candida albicans CaCi-2; a drug-resistant clinical isolate was provided by the Whitehead Institute (Redding et al., Clin. Infect. Dis. 1994, 18(2):240-2). This strain was used for the primary assay. • Candida albicans CaCi-17; a strongly drug-resistant clinical isolate was provided by the Whitehead Institute (Redding et al., Clin. Infect. Dis. 1994, 18(2):240-2). This strain was used for the primary assay • Saccharyomyces cerevisiae W303-1a (ATCC 208352); a well-characterized Saccharomyces strain used for determination of glycolytic vs. respiratory metabolism, as well as in the mitochondrial disruption assay. • Candida glabrata (ATCC 2001); used for determination of glycolytic vs. respiratory metabolism. • NIH-3T3 mammalian fibroblasts (ATCC; CRL no.1658); used for mammalian toxicity assays. […]
# Saccharomyces, while not a major human pathogen, is a useful lab model with well-developed genetic tools available. Candida glabrata is an increasingly prominent clinical problem for immune-compromised patients but with fewer genetic tools available with which to study it. These organisms can utilize alternative metabolic pathways to support growth and survival depending on the carbon source. By comparing the concentration-dependent inhibition of yeast growth in glycerol relative to glucose media, a quantitative assessment of a compound's ability to disrupt respiration can be determined. […].
# Clear, flat bottom, black 384-well plates (Corning Catalog no. 3712BC; Lot no. 35808016); Amphotericin B (Sigma Catalog no. A2411) 15 mM stock solution in DMSO; Pen/Strep (Gibco Catalog no. 10378-016; Lot no21040170) 100× in PBS.
# Synthetic defined growth medium. Complete Supplement Mixture; (Sunrise Science, Catalog No. 1001-100); Yeast Nitrogen Base without ammonium sulfate (MP Biomedicals, Catalog No. 4027-012); Glycerol (Sigma Catalog No. G-9012). • Prepare medium by dissolving 0.79 g Complete Supplement Mixture and 1.7 g Yeast Nitrogen Base in 800 mL water. • Add 20 mL of glycerol. Adjust final volume to 1000 mL. Filter sterilize.
# Fungal Inoculum. Test Strains: C. glabrata (ATCC 2001) and Saccharomyces cerevisiae W303. • Inoculate 100 μL of yeast from cryopreserved stock into 250 mL shaker flask containing 20 mL growth medium. Shake at 30° C. overnight (about 16 hours). • Read OD 600 of 1 mL of fungal culture in a cuvette using a standard optical density reader (Eppendorf BioPhotometer Plus), with growth medium as a background blank. • Dilute to desired volume of fungal inoculum to produce an OD600 reading of 0.005 (S. cerevisiae) or 0.004 (C. glabrata).
# Procedures • Use a Thermo Combi nL to dispense 20 μL/well of assay media into all wells. • Add 2 μL of Amphotericin B to control wells. • Pin 100 nL of test compound from compound plates into assay plates using a CyBi-Well pin tool. • Dispense 20 μL/well of culture into the assay media in all wells. • Incubate the plates in a humidified (90% humidity) Liconic incubator at 37° C. without agitation for 48 hours. • Shake plates briefly. • Read OD600 of wells on a standard plate reader as measure of relative fungal growth. Envision (Perkin Elmer) plate reader settings: Ex Photometric 600, Top read. Secondary Glucose Assay Protocol (AID 623971, 623967, 624013, 624025) Materials and Reagents
# [4] = test system: Candida albicans strain SC5314; assay: Colony counts over time, C. albicans SC5314 in RPMI (FIG. 14); format: cell-based; conditions: colonies counted after 24 and 48 hours
# Description: Compound I-B-4 (ML316) was studied in fluconazole-sensitive Candida albicans strain SC5314. The SC5314 strain was inoculated into RPMI media at 10^3 CFU/mL in the presence or absence of 5 μM I-B-4 (ML316) and 32 ug/mL fluconazole. Colonies were plated from the cultures after 24 and 48 hours and counted.
# [5] = test system: NIH-3T3 mammalian fibroblasts; assay: Counterscreen mammalian cell toxicity assay (Alamar Blue); format: cell-based, murine; conditions: for IC50: Mus musculus
# How it was run: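 Quiescent NIH-3T3 fibroblasts, cultured overnight, exposed to 100 nL pinned compound for 48 h at 37° C, 5% CO2. Alamar Blue added to 1:200 final, 2-3 h further incubation; fluorescence (RFU) read as relative cell growth.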
# [6] = test system: Candida albicans CaCi-2; assay: Colony counts over time, C. albicans CaCi-2 in RPMI (FIG. 15); format: cell-based; conditions: colonies counted after 24 and 48 hours
# Description: […] The CaCi-2 strain was inoculated into RPMI media at 10^3 CFU/mL in the presence or absence of 5 μM I-B-4 (ML316) and 32 ug/mL fluconazole. Colonies were plated from the cultures after 24 and 48 hours and counted.
# [7] = test system: Candida albicans CaCi-2; assay: Primary assay: C. albicans CaCi-2 growth inhibition (Alamar Blue); format: cell-based; conditions: for IC50: Candida albicans
# [8] = test system: HeLa cells; conditions: Hayakawa et al. 1971, cited from earlier work
# [9] = biological target: bovine bc1 complex (Bos taurus, UniProt P00157); conditions: read-out: IC50, isolated bovine bc1 complex; studies by Trumpower et al.; cited from earlier work
# [10] = 5 μM I-B-4 and 32 ug/mL fluconazole
smiles,measurement,setting,value
"CCOC(=O)N1C(=O)C2(CCCCC2)N(c2ccc(F)cc2)C1=S [CID 56604860, Ethyl 1-(4-fluorophenyl)-4-oxo-2-thioxo-1,3-diazaspiro[4.5]decane-3-carboxylate]","Stability in PBS solution, % remaining after a 48-hour incubation",[1],> 60%
same,IC50,"[2]; absence of fluconazole (FIG. 8), read-out: IC50 against C. albicans CaCi-2 growth, compound alone",120 nM
same,IC50,"[2]; presence of fluconazole (FIG. 8), read-out: IC50 against C. albicans CaCi-2 growth, with FCZ",10 nM
same,"Reduction in potency when glucose is available instead of glycerol, C. glabrata",[3],greater than 250 fold
same,IC50,"[3]; ATCC2001, read-out: Growth inhibition of C. glabrata on glycerol IC50",0.011 µM
same,"Fold Selective (Glucose IC50/Glycerol IC50), C. glabrata",[3]; Table 13,>272x
same,"Cytotoxicity to fluconazole-sensitive C. albicans SC5314, compound alone",[4]; 5 μM I-B-4,cytotoxic
same,"Cytotoxicity to fluconazole-sensitive C. albicans SC5314, combination with fluconazole (FCZ)",[4]; [10],cytotoxic
same,IC50,"[5]; NIH3T3, read-out: Murine 3T3 fibroblasts growth inhibition (fibroblast toxicity) IC50",> 26 µM
same,Toxicity against mammalian fibroblasts (in words),[5]; at concentrations up to 26 μM,no apparent toxicity
same,"Cytotoxicity to fluconazole-resistant C. albicans CaCi-2, compound alone",[6]; 5 μM I-B-4,cytotoxic
same,"Cytotoxicity to fluconazole-resistant C. albicans CaCi-2, combination with fluconazole (FCZ)",[6]; [10],cytotoxic
same,"Fold Selective (Anti-target IC50/Target IC50), fibroblast toxicity vs CaCi-2 growth inhibition",[7]; Table 12,>650x
CCOC(=O)N1C(=O)C2(CCCCC2)N(c2ccc(C)cc2)C1=S [compound 3889161],IC50,"[3]; ATCC2001, 48 h, read-out: Growth Inhibition Activity, IC50 (μM), C. glabrata (n = 3) On glycerol",0.041 µM
same,"Growth Inhibition Activity, IC50 (μM), 3T3 Fibroblasts (n = 1)","[5]; Table 3, n = 1, 48 hours, tested up to 26 μM",Inactive
same,"Growth Inhibition Activity, IC50 (μM), 3T3 Fibroblasts (n = 1)","[5]; Table 4, n = 1, 48 hours, tested up to 26 μM",Inactive
same,"Growth Inhibition Activity, IC50 (μM), 3T3 Fibroblasts (n = 1)","[5]; Table 5, n = 1, 48 hours, tested up to 26 μM",Inactive
same,"Growth Inhibition Activity, IC50 (μM), 3T3 Fibroblasts (n = 1)","[5]; Table 6, n = 1, 48 hours, tested up to 26 μM",Inactive
same,"Growth Inhibition Activity, IC50 (μM), 3T3 Fibroblasts (n = 1)","[5]; Table 7, n = 1, 48 hours, tested up to 26 μM",Inactive
same,IC50,"[7]; CACI2, 48 h, read-out: Growth Inhibition Activity, IC50 (μM), C. albicans (n = 3) CaCi-2",0.3 µM
CCOC(=O)N1C(=O)C2(CCCCC2)N(c2cccc(C)c2)C1=S [compound 56604823],IC50,"[3]; ATCC2001, Table 8, n = 3, glycerol media, 48 hours, tested up to 3 μM, read-out: Growth Inhibition Activity, IC50 (μM), C. glabrata (n = 3) On glycerol",0.034 µM
same,IC50,"[5]; NIH3T3, read-out: Growth Inhibition Activity, IC50 (μM), 3T3 Fibroblasts (n = 1), Table 4, n = 1, 48 hours, tested up to 26 μM",24.2 µM
same,IC50,"[7]; CACI2, Table 4, n = 3, 48 hours, tested up to 26 μM, read-out: Growth Inhibition Activity, IC50 (μM), C. albicans (n = 3) CaCi-2",0.2 µM
"C/C=C/C1[C@H]2C[C@@H](C)CC[C@@H]2C(C)=C[C@H]1C(=O)c1c(O)c(-c2ccc(O)cc2)c[nH]c1=O (some centres unmarked) [ilicicolin H, reference compound]",IC50,"[3]; ATCC2001, figure legends and Tables 9, 10, 13, AID 623965, read-out: Growth inhibition of C. glabrata on glycerol IC50",2.6 µM
same,MIC against HeLa cells,[8],2 µg/mL
same,MIC against HeLa cells,[8]; same value converted,4.6 µM
same,IC50,[9],200 nM
same,IC50,"[5]; NIH3T3, Tables 9, 10, 12, AID 602394, read-out: Murine 3T3 fibroblasts growth inhibition (fibroblast toxicity) IC50",10 µM
same,IC50,"[7]; CACI2, Tables 9, 10, 12, AID 623899, read-out: C. albicans CaCi-2 growth inhibition IC50",> 3 µM
